Measured values published in patent publication US10975114B2, “Bis 2′-5′-RR-(3′F-A)(3′F-A) cyclic dinucleotide compound and uses thereof” (ADURO BIOTECH, INC., priority 2017, dated 2021).

Key:
hSTING WT = target: T1, hSTING WT (Homo sapiens, UniProt Q86WV6, H232R); test: ITC binding assay, hSTING WT; settings: 25° C., protein 0.1 mM, ligand 0.35 mM
T1 construct: made in house; host or cells: BL21 Rosetta 2 (DE3) E. coli
Protocol: (§1) The WT and REF proteins were similarly prepared for use in an ITC binding assay. Expression plasmids were transformed into BL21 Rosetta 2 (DE3) (EMD Millipore) E. coli cells for protein expression. 50 ml starter cultures were grown overnight in 2×YT supplemented with 50 μg/ml kanamycin and 30 μg/ml chloramphenicol. Multi-liter large scale cultures of the same growth media as the starter were inoculated at a ratio of 1:1,000 (V/V) and allowed to grow at 37° C. to an optical density of 0.6, cultures were then shifted to 18° C. Protein expression was induced by the addition of isopropyl β-D-1-thiogalactopyranoside to a final concentration of 0.3 mM. Protein expression was allowed to proceed for 18-24 hrs. Pelleted cells were resuspended in 50 mM Tris pH 7.5, 500 mM NaCl, 10% glycerol, 20 mM imidazole, 1 mM TCEP and complete protease inhibitor cocktail (Sigma). Cells were lysed by sonication (Branson) and insoluble material was removed by centrifugation. Proteins were purified on Ni-NTA resin and concentrated to >10 mg/ml. 6×H-SUMO-STING LBD was further purified by gel filtration chromatography using a High Load 26/600 Superdex 75 column (GE Healthcare) in a buffer of 20 mM Tris pH 7.5, 150 mM NaCl, 5% glycerol and 1 mM TCEP. Peak fractions were concentrated to between 10-15 mg/ml via ultrafiltration aliquoted and flash frozen in liquid nitrogen and stored at […]
The resulting amino acid sequence for the STING WT allele is as follows: • Allele Name: WT • Amino Acid Sequence:
(§2) Proteins were dialyzed overnight in 20 mM HEPES pH 7.5, 150 mM NaCl. Insoluble material was removed by centrifugation at 31,000×g. The invention compound 2′2′-RR-(3′F-A)(3′F-A) and comparison STING agonists 3′3′-RR-(2′F-A)(2′F-A); 2′3′-RR-(3′F-A)(2′F-A) were resuspended in dialysis buffer. The concentration of both the protein and ligands were checked by spectroscopy and adjusted if necessary.
(§3) STING protein was added to the ITC sample cell at a final concentration of 0.1 mM. The CDN ligand was at a final concentration of 0.35 mM in the syringe. […]

[1] = test system: THP1 cells (hSTING HAQ allele); test: THP1-Dual IRF-3 luciferase reporter assay without digitonin; type: cell-based, human; settings: 30 min compound incubation, overnight readout of secreted luciferase
Protocol: Cells were washed with fresh media and incubated for 30 min at 37° C. with 5% CO2 with compounds in 3-fold titration steps from 2,000 to 0.0338 μM in PB buffer (50 mM 4-(2-hydroxyethyl)-1-piperazineethanesulfonic acid, 100 mM KCl, 3 mM MgCl2, 0.1 mM dithiothreitol, 85 mM sucrose, 1 mM ATP, 0.1 mM GTP and 0.2% bovine serum albumin). After 30 minutes, cells were washed and fresh RPMI media containing 10% FBS was added, and cells were incubated at 37° C. with 5% CO2. Cell culture supernatants from each sample were collected after overnight incubation, and 10 μl of the cell culture supernatants was added to 50 μl QUANTI-Luc reagent (Invivogen). Type I interferon activation was determined by measuring secreted luciferase levels on a SpectraMax M3 spectrophotometer (Molecular Devices). The EC50 value for the same compounds as tested in Example 4 was determined from the dose-response curve for the 10 concentrations from the serial dilution of the compounds in this assay.

hSTING REF allele = target: T2, hSTING REF allele (Homo sapiens, UniProt Q86WV6); test: ITC binding assay, hSTING REF allele; settings: 25° C., protein 0.1 mM, ligand 0.35 mM
T2 construct: made in house; host or cells: BL21 Rosetta 2 (DE3) E. coli
Protocol: as §1
The resulting amino acid sequences for the STING REF allele is as follows: • Allele Name: REF • Amino Acid Sequence:
as §2, §3

Row | Kd (hSTING WT) | EC50 ([1]; Homo sapiens, THP-1, 0.5 h) | Kd (hSTING REF allele) | EC50 [1] | SMILES
1 | 74 nM | 15600 nM | 591 nM | – | Nc1ncnc2c1ncn2[C@@H]1O[C@@H]2CO[P@@](=O)(S)O[C@H]3[C@@H](F)[C@H](n4cnc5c(N)ncnc54)O[C@@H]3CO[P@@](=O)(S)O[C@H]2[C@H]1F [3′3′-RR-(2′F-A)(2′F-A), (2R,3R,3aR,5R,7aR,9R,10R,10aR,12R,14aR)-2,9-bis(6-amino-9H-purin-9-yl)-3,10-difluoro-5,12-dimercaptooctahydro-2H,7H-difuro[3,2-d:3′,2′-j][1,3,7,9]tetraoxa[2,8]diphosphacyclododecine 5,12-dioxide]
2 | – | – | – | > 150000 nM | Nc1nc2c(ncn2[C@@H]2O[C@@H]3COP(=O)(O)O[C@H]4[C@@H](O)[C@H](n5cnc6c(N)ncnc65)O[C@@H]4COP(=O)(O)O[C@@H]2[C@@H]3O)c(=O)[nH]1 [2′3′-(G)(A)]
